Patent US6518243B1, “Desleucyl glycopeptide antibiotics and methods of making same” (Trustees of Princeton University, priority 1999, dated 2003)

Experiments:
Test in all cases: Zone of inhibition screen, 96 well agar array format
Format in all cases: cell-based
Set-up in all cases: scale not given here
[1] = system: S. epidermidis (ATCC 12228)
Summary of the method: (§1)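 Each compound was tested for antibacterial activity against a shared bacterial panel, with screening carried out on agar in a 96-well array.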

E. faecalis (CL 4877) = details: zone of inhibition relative to 1 mg/ml p-chlorobiphenylvancomycin
Summary of the method: as §1

S. aureus (ATCC 29213) = details: zone of inhibition relative to 1 mg/ml p-chlorobiphenylvancomycin
Summary of the method: as §1

[2] = zone of inhibition relative to 1 mg/ml p-chlorobiphenylvancomycin

| Compound | zone score, S. epidermidis ATCC 12228 ([1]; zone of inhibition relative to 1 mg/ml stock solution of p-chlorobiphenylvancomycin) | zone score, S. epidermidis ATCC 12228 [1, 2] | zone score, E. faecalis CL 4877 (E. faecalis (CL 4877)) | zone score, S. aureus ATCC 29213 (S. aureus (ATCC 29213)) |
| --- | --- | --- | --- | --- |
| CC(=O)N1CCC(C(=O)NC2C(=O)NC(CC(N)=O)C(=O)NC3C(=O)NC4C(=O)NC(C(=O)NC(C(=O)O)c5cc(O)cc(O)c5-c5cc4ccc5O)C(O)c4ccc(c(Cl)c4)Oc4cc3cc(c4OC3OC(CO)C(O)C(O)C3OC3CC(C)(NCc4ccc(-c5ccc(Cl)cc5)cc4)C(O)C(C)O3)Oc3ccc(cc3Cl)C2O)CC1 (centres unmarked) [Compound 99] | 2 |  |  |  |
| Cc1cn(CC(=O)NC2C(=O)NC(CC(N)=O)C(=O)NC3C(=O)NC4C(=O)NC(C(=O)NC(C(=O)O)c5cc(O)cc(O)c5-c5cc4ccc5O)C(O)c4ccc(c(Cl)c4)Oc4cc3cc(c4OC3OC(CO)C(O)C(O)C3OC3CC(C)(NCc4ccc(-c5ccc(Cl)cc5)cc4)C(O)C(C)O3)Oc3ccc(cc3Cl)C2O)c(=O)[nH]c1=O (centres unmarked) [Compound 207] |  | 2 |  |  |
| CC1OC(OC2C(Oc3c4cc5cc3Oc3ccc(cc3Cl)C(O)C3NC(=O)C(NC(=O)C5NC(=O)C(CC(N)=O)NC(=O)C(NC(=O)c5cccc(SC(F)(F)F)c5)C(O)c5ccc(c(Cl)c5)O4)c4ccc(O)c(c4)-c4c(O)cc(O)cc4C(C(=O)O)NC3=O)OC(CO)C(O)C2O)CC(C)(NCc2ccc(-c3ccc(Cl)cc3)cc2)C1O (centres unmarked) [Compound 248] |  |  | 2 | 2 |
| CC(=O)Oc1cc(C(=O)NC2C(=O)NC(CC(N)=O)C(=O)NC3C(=O)NC4C(=O)NC(C(=O)NC(C(=O)O)c5cc(O)cc(O)c5-c5cc4ccc5O)C(O)c4ccc(c(Cl)c4)Oc4cc3cc(c4OC3OC(CO)C(O)C(O)C3OC3CC(C)(NCc4ccc(-c5ccc(Cl)cc5)cc4)C(O)C(C)O3)Oc3ccc(cc3Cl)C2O)cc(OC(C)=O)c1OC(C)=O (centres unmarked) [Compound 250] |  | 2 |  |  |
| CC1OC(OC2C(Oc3c4cc5cc3Oc3ccc(cc3Cl)C(O)C3NC(=O)C(NC(=O)C5NC(=O)C(CC(N)=O)NC(=O)C(NC(=O)Cc5ccc(F)c(F)c5)C(O)c5ccc(c(Cl)c5)O4)c4ccc(O)c(c4)-c4c(O)cc(O)cc4C(C(=O)O)NC3=O)OC(CO)C(O)C2O)CC(C)(NCc2ccc(-c3ccc(Cl)cc3)cc2)C1O (centres unmarked) [Compound 252] |  | 2 |  |  |
| CC1OC(OC2C(Oc3c4cc5cc3Oc3ccc(cc3Cl)C(O)C3NC(=O)C(NC(=O)C5NC(=O)C(CC(N)=O)NC(=O)C(NC(=O)c5cc(C(F)(F)F)cc(C(F)(F)F)c5)C(O)c5ccc(c(Cl)c5)O4)c4ccc(O)c(c4)-c4c(O)cc(O)cc4C(C(=O)O)NC3=O)OC(CO)C(O)C2O)CC(C)(NCc2ccc(-c3ccc(Cl)cc3)cc2)C1O (centres unmarked) [Compound 254] |  |  | 2 | 2 |
| CC1OC(OC2C(Oc3c4cc5cc3Oc3ccc(cc3Cl)C(O)C3NC(=O)C(NC(=O)C5NC(=O)C(CC(N)=O)NC(=O)C(NC(=O)c5cc(O)cc(O)c5)C(O)c5ccc(c(Cl)c5)O4)c4ccc(O)c(c4)-c4c(O)cc(O)cc4C(C(=O)O)NC3=O)OC(CO)C(O)C2O)CC(C)(NCc2ccc(-c3ccc(Cl)cc3)cc2)C1O (centres unmarked) [Compound 255] |  |  | 2 | 2 |
| C[C@H]1O[C@H](O[C@H]2[C@H](Oc3c4cc5cc3Oc3ccc(cc3Cl)[C@@H](O)[C@@H](NC(=O)c3nc(N)n[nH]3)C(=O)N[C@@H](CC(N)=O)C(=O)N[C@H]5C(=O)N[C@H]3C(=O)N[C@H](C(=O)N[C@@H](C(=O)O)c5cc(O)cc(O)c5-c5cc3ccc5O)[C@H](O)c3ccc(c(Cl)c3)O4)O[C@H](CO)[C@@H](O)[C@@H]2O)C[C@@](C)(NCc2ccc(-c3ccc(Cl)cc3)cc2)[C@H]1O [Compound 256] |  |  | 2 | 2 |
| CC1OC(OC2C(Oc3c4cc5cc3Oc3ccc(cc3Cl)C(O)C3NC(=O)C(NC(=O)C5NC(=O)C(CC(N)=O)NC(=O)C(NC(=O)c5cccc(F)c5)C(O)c5ccc(c(Cl)c5)O4)c4ccc(O)c(c4)-c4c(O)cc(O)cc4C(C(=O)O)NC3=O)OC(CO)C(O)C2O)CC(C)(NCc2ccc(-c3ccc(Cl)cc3)cc2)C1O (centres unmarked) [Compound 259] |  | 2 |  |  |
| C[C@H]1O[C@H](O[C@H]2[C@H](Oc3c4cc5cc3Oc3ccc(cc3Cl)[C@@H](O)[C@@H](NC(=O)c3ccoc3)C(=O)N[C@@H](CC(N)=O)C(=O)N[C@H]5C(=O)N[C@H]3C(=O)N[C@H](C(=O)N[C@@H](C(=O)O)c5cc(O)cc(O)c5-c5cc3ccc5O)[C@H](O)c3ccc(c(Cl)c3)O4)O[C@H](CO)[C@@H](O)[C@@H]2O)C[C@@](C)(NCc2ccc(-c3ccc(Cl)cc3)cc2)[C@H]1O [Compound 260] |  | 2 |  |  |
| CC(=O)Nc1ccc(C(=O)NC2C(=O)NC(CC(N)=O)C(=O)NC3C(=O)NC4C(=O)NC(C(=O)NC(C(=O)O)c5cc(O)cc(O)c5-c5cc4ccc5O)C(O)c4ccc(c(Cl)c4)Oc4cc3cc(c4OC3OC(CO)C(O)C(O)C3OC3CC(C)(NCc4ccc(-c5ccc(Cl)cc5)cc4)C(O)C(C)O3)Oc3ccc(cc3Cl)C2O)cc1 (centres unmarked) [Compound 265] |  |  | 2 | 2 |
| COc1ccc(C=CC(=O)NC2C(=O)NC(CC(N)=O)C(=O)NC3C(=O)NC4C(=O)NC(C(=O)NC(C(=O)O)c5cc(O)cc(O)c5-c5cc4ccc5O)C(O)c4ccc(c(Cl)c4)Oc4cc3cc(c4OC3OC(CO)C(O)C(O)C3OC3CC(C)(NCc4ccc(-c5ccc(Cl)cc5)cc4)C(O)C(C)O3)Oc3ccc(cc3Cl)C2O)cc1 (centres unmarked) [Compound 273] |  | 2 |  |  |
| CC1OC(OC2C(Oc3c4cc5cc3Oc3ccc(cc3Cl)C(O)C3NC(=O)C(NC(=O)C5NC(=O)C(CC(N)=O)NC(=O)C(NC(=O)c5ccc(O)nc5)C(O)c5ccc(c(Cl)c5)O4)c4ccc(O)c(c4)-c4c(O)cc(O)cc4C(C(=O)O)NC3=O)OC(CO)C(O)C2O)CC(C)(NCc2ccc(-c3ccc(Cl)cc3)cc2)C1O (centres unmarked) [Compound 276] |  | 2 |  |  |
| CC(=O)CCCCC(=O)NC1C(=O)NC(CC(N)=O)C(=O)NC2C(=O)NC3C(=O)NC(C(=O)NC(C(=O)O)c4cc(O)cc(O)c4-c4cc3ccc4O)C(O)c3ccc(c(Cl)c3)Oc3cc2cc(c3OC2OC(CO)C(O)C(O)C2OC2CC(C)(NCc3ccc(-c4ccc(Cl)cc4)cc3)C(O)C(C)O2)Oc2ccc(cc2Cl)C1O (centres unmarked) [Compound 278] |  |  | 2 | 2 |
| CC1OC(OC2C(Oc3c4cc5cc3Oc3ccc(cc3Cl)C(O)C3NC(=O)C(NC(=O)C5NC(=O)C(CC(N)=O)NC(=O)C(NC(=O)c5ccc(=O)oc5)C(O)c5ccc(c(Cl)c5)O4)c4ccc(O)c(c4)-c4c(O)cc(O)cc4C(C(=O)O)NC3=O)OC(CO)C(O)C2O)CC(C)(NCc2ccc(-c3ccc(Cl)cc3)cc2)C1O (centres unmarked) [Compound 282] |  |  | 2 | 2 |
| COC(=O)C=CC(=O)NC1C(=O)NC(CC(N)=O)C(=O)NC2C(=O)NC3C(=O)NC(C(=O)NC(C(=O)O)c4cc(O)cc(O)c4-c4cc3ccc4O)C(O)c3ccc(c(Cl)c3)Oc3cc2cc(c3OC2OC(CO)C(O)C(O)C2OC2CC(C)(NCc3ccc(-c4ccc(Cl)cc4)cc3)C(O)C(C)O2)Oc2ccc(cc2Cl)C1O (centres unmarked) [Compound 297] |  |  | 2 | 2 |
| CC1OC(OC2C(Oc3c4cc5cc3Oc3ccc(cc3Cl)C(O)C3NC(=O)C(NC(=O)C5NC(=O)C(CC(N)=O)NC(=O)C(NC(=O)c5ccc(=O)[nH]n5)C(O)c5ccc(c(Cl)c5)O4)c4ccc(O)c(c4)-c4c(O)cc(O)cc4C(C(=O)O)NC3=O)OC(CO)C(O)C2O)CC(C)(NCc2ccc(-c3ccc(Cl)cc3)cc2)C1O (centres unmarked) [Compound 298] |  |  | 2 | 2 |
